Results published in patent US20150086557A1, “NOVEL INTEGRIN alpha9 beta1 LIGAND AND USES THEREOF” (OSAKA UNIVERSITY, priority 2012, published 2015).

Tests used:
RD cells = assay: Cell adhesion assay on coated plates (RD cells); type: cell-based, human
Method: A cell adhesion assay was performed as described in Sato, Y. , Uemura, T., Morimitsu, K., Sato-Nishiuchi, R., Manabe, R., Takagi, J., Yamada, M., and Sekiguchi, K. (2009) J. Biol. Chem. 284, 14524-14536. For an assay involving blocking antibodies, RD cells (human rhabdomyosarcoma cells) were preincubated with monoclonal antibodies of interest at room temperature for 15 minutes and plated on 96-well plates coated with recombinant polydom proteins or fibronectin. The cells were incubated for 30 minutes, washed, fixed with 3.7% formaldehyde, and stained with 0.5% toluidine blue.
The cells were plated on 96-well plates coated with serial diluted concentrations of full-length polydom, pol-N, pol-C or plasma fibronectin (FN) and incubated at 37° C. for 30 minutes. After washing out unattached cells, attached cells were fixed and stained with toluidine blue. The attached cells were counted under a microscope. The assay was performed in triplicate.

A549 cells = assay: Cell adhesion assay on coated plates (A549 cells); type: cell-based, human; conditions: data not shown
HT1080 cells = assay: Cell adhesion assay on coated plates (HT1080 cells); type: cell-based, human; conditions: data not shown
hematopoietic stem cells [1] = assay: Proliferation of hematopoietic stem cells on coated plates; type: cell-based, mouse
Method: (§1) Bone marrow cells were flushed out from the femurs and tibias of three mice of 6 to 7 weeks of age (C57BL/6J) and dissociated with a 22G needle. The cells were reacted with a biotin-labeled anti-lineage antibody for 30 minutes and subsequently with an anti-blotin antibody-conjugated magnetic beads, and lineage-positive cells were removed by automated magnetic cell sorter autoMACS (Miltenyi Biotec). After staining with PE-CD3, PE-Mac1, PE-Gr1, PE-Ter119, PE-B220, FTTC-Sca1 and APC-c-Kit, a lineage(−) Sca1(+) c-Kit (high) cell fraction was sorted out using FACSAria and used for the experiments described below.
(§2) The above-prepared cells were plated on a 48-well plate coated with a recombinant polydom protein or fibronectin. The same type of plate without coating was used as a control. The medium used was RPMI containing 10% fetal calf serum, thrombopoietin (30 ng/ml) and flt3 ligand (100 ng/ml). For the examination of cell proliferation, the cells were plated in duplicate wells for each coating at 1000 cells/well and started to be cultured, and the cell number was counted at the start of culture, and on day 2 and day 3. The remaining cells were divided into three aliquots, plated in wells for each coating, and subjected to FACS analysis on day 3 after the start of culture. For the FACS analysis, staining with an antibody cocktail containing PE-CD3, PE-Mac1, PE-Gr1, PE-Ter119, PE-B220, FITC-Sca1 and APC-c-Kit was performed and FACSCont was used.
The above-prepared cells were divided into three groups and plated on 48-well plates at 5000 cells/well. The medium used was RPMI containing 10% fetal calf serum, thrombopoietin (30 ng/ml) and flt3 ligand (100 ng/ml). For an EDDMMEVPY peptide treatment group, 2 μl of the peptide was added to each well at the final concentration of 50 μM, and for the other two groups, 2 μl of PBS was added to each well. Then, the culture was performed at […] for 2 hours. Subsequently, the cells were transferred to 48-well plates coated with a recombinant polydom protein or fibronectin. The cells cultured in the presence of the peptide were transferred to the recombinant polydom protein-coated plate, and the cells in one of the other two groups were transferred to the recombinant polydom protein-coated plate, and the cells in the remaining group were transferred to the fibronectin-coated plate. The culture was continued for 3 days and the cell numbers were counted on day 2, day 3 and […].

hematopoietic stem cells [2] = assay: FACS analysis of differentiation of hematopoietic stem cells on coated wells; type: cell-based, mouse; conditions: day 3 of culture on coated well, FIG. 19
Method: as §1, §2

cardiac stem cells = assay: Cell adhesion assay using GFP label-retaining cells (cardiac stem cells); type: cell-based, mouse; conditions: 100 nM coating, FIG. 25
Excerpt: Tissue stem cells are known to generally have a very prolonged, cell cycle and thus allow labeling compounds incorporated into DNA and the cell interior to remain stable for a long period of time without decay along with cell division, This nature can be advantageously used to identify and separate tissue stem cells by short-term labeling or cells with a nucleotide analog such as bromodeoxyuridine (BrdU) or a fusion protein of green fluorescent protein (hereinafter referred to as “GFP”) and a nucleoprotein, histone, followed by selection of cells retaining the label for a long period of time (label-retaining cells). In this experiment, with the use of a tetracycline-inducible expression system in combination with the ROSA26 promoter, a fusion protein of GFP and histone H2B (H2B-GFP) was expressed in the heart of a mouse for 2 weeks starting 1 week before birth, and 6 weeks later, cardiac stem cells were separated as GFP label-retaining cells from the heart.
To explore whether polydom serves as a scaffold for integrin α9β1-expressing cardiac stem cells, cardiac stem cells were separated as GFP label-retaining cells and subjected to a cell adhesion assay. A 96-well immuno plate (Nunc Maxisorp) was coated with 50 μl/well of 100 nM polydom or fibronectin at 4° C. overnight, GFP label-retaining cells were collected by FACSAria and suspended at 1×10^6 cells/ml in serum-free Iscove's Modified Dulbecco Medium (hereinafter referred to as “IMDM”). The cell suspension was plated at 100 μl/well and cultured in a 5% CO2 incubator at 37° C. for 12 hours. After three washes with PBS, the cells were fixed with 100 μl/well of 3.7% formalin for 15 minutes. Then, the cells were incubated with 0.5% toluidine blue (150 μl/well) for 10 minutes and washed with MilliQ water. After drying, the number of attached cells was counted under a microscope.

What does the source list for “polydom: recombinant mouse SVEP1 (SEQ ID NO: 2), ECM protein, ligand for integrin α9β1”?
coating concentration attaining the maximum adhesion of RD cells (RD cells; 96-well plates, 37° C. for 30 minutes, FIG. 4): 3 µg/mL; promotion of RD cell adhesion (RD cells; coated 96-well plates, 37° C. for 30 minutes, FIG. 4): coating concentration-dependent manner; morphology of attached RD cells (RD cells; microscopic observation, FIG. 5): exhibited spread morphology; adhesion of A549 cells (A549 cells): did not adhere; adhesion of HT1080 cells (HT1080 cells): did not adhere; proliferation of hematopoietic stem cells on coated wells (hematopoietic stem cells [1]; 1000 cells/well, counted to day 3, versus uncoated control, FIG. 18): remarkably inhibited from proliferating; proliferation of hematopoietic stem cells on coated plate after PBS pretreatment (hematopoietic stem cells [1]; 5000 cells/well, counted day 2 to day 4, FIG. 20): remarkably inhibited from proliferating; expression of Sca1 on hematopoietic stem cells (hematopoietic stem cells [2]): maintained the expression of Sca1; expression of c-Kit on hematopoietic stem cells (hematopoietic stem cells [2]): reduced expression of c-Kit; adhesion of cardiac stem cells to coated plate (cardiac stem cells; 12 hours, serum-free IMDM): a large number of the cells adhered; cell adhesion activity for cardiac stem cells compared with fibronectin (cardiac stem cells): equivalent or superior to fibronectin
